Source: patent publication US20240299266A1, “FRAGRANCE COMPOSITIONS WITH MOISTURIZING BENEFITS” (Firmenich SA, priority 2021, published 2024)
“Also recorded” adds a separate entry of the source.

Assay: TEWL (trans-epidermal water loss) measurement on in-vitro skin model
Conditions: 50 μL applied on hydrated artificial skin membrane on a Franz Cell, Vapometer, TEWL during 60 min, normalized to pre-treatment reference (100%)
Excerpt: The present inventors have investigated the moisturizing potential of perfume ingredients. To perform this assessment they used a model called a skin replicating surface, and measured the transepidermal water loss (TEWL) before and after the deposit of a sample of the perfume ingredient. This is measure of the moisturizing activity of the perfume ingredient.
The moisturizing activity of a fragrance component may be calculated as follows. • a step of controlled deposition of a fragrance component upon an skin replicating surface, • a step of measurement of a quantity of evaporated water from the skin replicating surface or of remaining water on the skin replicating surface after the deposition of the fragrance component at different measurement times, • a step of reduction of the water evaporation rate calculation depending on the measured evaporated or remaining water quantities measured, • a step of moisturizing activity calculation as a function of the water evaporation rate measured.
The skin replicating surface comprising (i) a hydrogel membrane layer comprising a water permeable substrate supporting a biopolymer, and (ii) a stratum corneum mimic layer.
The hydrogel membrane composition should include a knitted cotton piece topped by a hydrogel containing biopolymer (gelatin) able to form a hydrogel with water and glycerol.
The stratum corneum mimic layer can be a Vitro-Corneum substrate (product of IMS inc.)
Before measurements, the hydrogel membrane and the Vitro-Corneum substrate should be separately hydrated in a hydration chamber and then, assembled. The Vitro-Corneum substrate is made of proteins and lipids and mimics the thickness, the visco-elasticity, the chemical reactivity and the surface properties of human stratum corneum. The hydrogel allows to keep the Vitro-Corneum substrate hydrated.
Hydrogel is prepared by mixing gelatin, glycerol and water at a water bath in the following composition. Preferably around 50% of the hydrogel is glycerol and around 5% is gelatin completed to 100% with water. This is added to a supporting surface and allowed to set.
Both part of the artificial skin model needs to be hydrated before being assembled. Hydrogel membranes and the Vitro-Corneum substrate (2×2 cm) are placed into an hydration chamber containing the glycerol/water wetting solution. Hydrogel membranes are hydrated and Vitro-Corneum substrates are hydrated. When the hydration is complete, the Vitro-Corneum substrate is deposited on the hydrogel. The final skin model is now ready for experiments.
The TEWL (Trans-Epidermal Water Loss) measurements were performed with a Vapometer and Moisturemeter, product of Delfin Technologies (Finland).
Hydrated artificial skin membrane is placed on the top of a Franz Cell, 50 μL of the product to be tested is applied on the membrane and spread manually with a finger protected by a glove. The Vapometer measures the water evaporation rate thanks to sensitive humidity sensors mounted in a cylindrical measurement chamber at the core of the device. During the measurement, the chamber is closed by the support and unaffected by ambient airflows. The water evaporation rate (g/m^2 h) is calculated from the increase of relative humidity in function of time. Ambient temperature and humidity are recorded using an external room sensor.
For our TEWL measurement method, each experiment lasts one hour, and several measurements were taken at different time points during this period.
All the experiments were compared to a reference system: hydrated artificial skin model, pre-treatment, without raw material application. […] For each experiment, the evaporation rate was measured before the ingredient application and the TEWL results were normalized by its value. With the normalization, the reference corresponds to 100% of water evaporation.

| Molecule | moisturizing (reduction of water evaporation rate / TEWL after deposit of the sample) | other results |
| --- | --- | --- |
| 1-oxa-12-cyclohexadecen-2-one (a)+1-oxa-13-cyclohexadecen-2-one | suitable moisturizing potential | – |
| CC(=O)[C@]1(C)CC2=C(CCCC2(C)C)C[C@H]1C (racemic) [1-((2rs,3rs)-2,3,8,8-tetramethyl-1,2,3,4,5,6,7,8-octahydronaphthalen-2-yl)ethenone] | suitable moisturizing potential | – |
| CO[C@@]1(C)CC[C@@]23C[C@@H]1C(C)(C)[C@@H]2CC[C@H]3C (racemic) [(+−)-8-methoxycedrane] | have moisturizing effects; also recorded: suitable moisturizing potential | – |
| CC1/C=C/CCCCCCCCCCC(=O)C1 (racemic) [(+−)-(4e)-3-methyl-4-cyclopentadecen-1-one] | suitable moisturizing potential | – |
| C=CCCC(=O)C1=CCCC(C)(C)C1 [1-(5,5-dimethyl-1-cyclohexen-1-yl)-4-penten-1-one] | suitable moisturizing potential | – |
| C=C(C)C1CC=C(C)CC1 (stereo not shown) [1-methyl-4-(1-methylethenyl)-cyclohexene] | have moisturizing effects; also recorded: suitable moisturizing potential | – |
| CCC(=O)OCC(=O)O[C@@H](C)[C@@H]1CCCC(C)(C)C1 [2-{(1S)-1-[(1R)-3,3-dimethylcyclohexyl]ethoxy}-2-oxoethyl propionate] | have moisturizing effects | – |
| CC1(C)CCC[C@]2(C)[C@H]3CCO[C@]3(C)CC[C@@H]12 [(3ar,5as,9as,9br)-3a,6,6,9a-tetramethyldodecahydronaphtho[2,1-b]furan] | suitable moisturizing potential | – |
| CCC(=O)OCC(C)(C)O[C@@H](C)[C@@H]1CCCC(C)(C)C1 [(+)-2-{(1S)-1-[(1R)-3,3-dimethylcyclohexyl]ethoxy}-2-methylpropyl propionate] | suitable moisturizing potential | – |
| CCCCC[C@@H]1C(=O)CCCC[C@H]1CC(=O)OC [(+)-methyl (1s)-trans-3-oxo-2-pentyl-1-cycloheptaneacetate] | suitable moisturizing potential | moisturizing (reduction of water evaporation rate / TEWL after deposit of the sample) (listed as Cycloheptaneacetic acid, 3-oxo-2-pentyl-): have moisturizing effects |
| CC(=O)OCc1ccccc1 [benzyl acetate] | suitable moisturizing potential | moisturizing (reduction of water evaporation rate / TEWL after deposit of the sample) (listed as Benzyl acetate): have moisturizing effects |
| O=C1CCCCCCCCCCCCCCO1 [oxacyclohexadecan-2-one] | suitable moisturizing potential | moisturizing (reduction of water evaporation rate / TEWL after deposit of the sample) (listed as Oxacyclohexadecan-2-one): have moisturizing effects |
| (3RS,3aRS,6SR,7aSR)-3,6-dimethylhexahydro-1-benzofuran-2(3H)-one (A)+(3RS,3aSR,6RS,7aRS)-3,6-dimethylhexahydro-1-benzofuran-2(3H)-one (B) | have moisturizing effects; also recorded: suitable moisturizing potential | – |
